In patent US10858443B2, “Synthetic notch protein for modulating gene expression” (TRUSTEES OF BOSTON UNIVERSITY, priority 2017, dated 2020):
Entries after “also recorded” stand apart in the source; their conditions may differ.

Columns and labels:
[1] = target: T1, NS3 protease (Hepatitis C virus genotype 1a, UniProt P26664, A1066T/DELINS1218-1635AV/I1179L/T1080A); assay type: cell-based; details: Cho-K1 UAS H2B-Citrine line expressing DBGal4-NS3-TAGal4; drug ~24 hours; flow cytometry (FIG. 18)
[2] = target: T1, NS3 protease; assay type: cell-based; details: DBGal4-NS3-TAGal4, anti-HA western; intact TF undetectable in untreated controls
[3] = system: CXCR4; assay: dCas9-NS3-NLS/VPR drug-induced gene upregulation (flow cytometry); assay type: cell-based, human; details: dCas9-NS3-NLS/VPR with sgRNA
Description: FIGS. 16A-16E show drug-control over endogenous gene expression using dCas9-NS3-NLSNPR. FIG. 16A Schematic depiction of the drug-inducible stabilization and nuclear localization of dCas9-NS3-NLSNPR. […] An unfused dCas9 domain (160 kDa) is produced in the absence of drug. FIG. 16C Immunostained HeLa cells showing the subcellular localization of the dCas9 domain in the presence or absence of 3 μM BILN-2061. […] FIG. 16D Schematic of the time-dependent dye labeling strategy used to analyze cells expressing SNAP-dCas9-NS3-NLSNPR (top), and corresponding fluorescence images of dye-labeled HeLa cells (bottom). […] Expression of the chemokine receptor was analyzed by staining of cells anti-CXCR4 antibody followed by quantification via flow cytometry.
FIG. 22 sgRNAs targeting the CXCR4 promoter were co-transfected into HEK 293FT alongside DNAs encoding either dCas9-VPR, or dCas9-NS3-NLS/VPR. The extent of CXCR4 upregulation was subsequently quantified by flow cytometry using a fluorescently-labeled anti-CXCR4 antibody. […]
For expression analyses carried out using dCas9-based TFs, HEK 293FT cells were seeded in 48-well plates and transfected at a density of […] cells per well. […] Expression of the chemokine receptor was analysed via flow cytometry using a fluorescently-conjugated CXCR-4 antibody; geometric means were recorded.

[4] = system: human Notch1; assay: Dll1-NS3-mCherry ligand presentation and sender/receiver coculture Notch signaling; assay type: cell-based; details: 1.5 μM BILN-2061
Text: FIG. 17C Immunofluorescence staining of fixed (non-permeabilized) cells expressing Dll1-NS3-mCherry. […] FIG. 17D Schematic depiction of trans-cellular signaling between Notch “receiver” cells by Dll1-NS3-mCherry expressing “sender” cells in the absence and presence of drug. FIG. 17E Fluorescence images of cocultured sender and receiver cells. Sender cells expressed the Dll1-NS3-mCherry ligand. Receiver cells constitutively expressed human Notch1 and H2B-Cerulean, and conditionally expressed H2B-Citrine upon up Notch activation. […] The interface between sender and receiver cells colonies is denoted by the white dotted line. FIG. 17F Magnified region from the inset shown in (17E) shown as an overlay with the corresponding transmitted light image.
FIGS. 25A and 25B show images of Dll1-NS3/4A-mCherry mediated cell-cell signaling captured by epifluorescence imaging under 10× magnification. FIG. 25A Sender cells expressing the Dll1-NS3/4A ligand are cultured with receiver cells expressing the Notch transmembrane receptor. Receiver cell population is identified by a constitutively expressed H2B-Cerulean. Notch activation drives reporter activity of H2B-Citrine. Cells are cultured together with or without 1.5 μM BILN-2061 drug for 72 hours before imaging. FIG. 25B […]

[5] = target: T1, NS3 protease; assay type: cell-based; details: 3 μM BILN-2061
[6] = target: T1, NS3 protease; assay type: cell-based; details: increasing concentration of BILN-2061; 100 ng/mL doxycycline
[7] = target: T1, NS3 protease; assay type: cell-based; details: for stabilization of full-length dCas9-NS3 TF (immunoblot): drug-treated versus untreated cells
[8] = system: HEK 293FT cells; assay: SynNotch background (leaky) activation, SN versus SN-LWF core, HEK 293FT cells; assay type: cell-based, human
Description: FIGS. 31A-31C show reduction of SynNotch leakiness by incorporation of the juxtamembrane LWF motif (FIG. 31A) Schematic of the Notch TMD and LWF motif, slightly modified from to highlight the difference between the original SynNotch core's C-terminus and the modified SynNotch core's C-terminus, where 10 amino acids are added to include the LWF motif (FIGS. 31B and 31C) anti-FITC SynNotch receptors containing SN or SN-LWF as the core domain are expressed and tested in HEK 293FT cells. Cells are either plated on fibronectin alone to test background activation (dashed lines) or on fibronectin with BSA-FITC to activate the receptors (solid lines). FIG. 31A discloses SEQ ID NO: 70. […] Values shown are the percentage of cells in the ON state for each case.
Data herein provides preliminary evidence that inclusion of the LWF motif reduces background activation in SynNotch receptors. In initial experiments, the original SynNotch core design (SN) was compare with a SynNotch core containing the LWF motif (SN-LWF) (FIG. 31A). Each receptor core was test with two different transcription factor intracellular domains (ICD's): Gal4 fused to VP64 (“VP64,” a modest transcriptional activator commonly used in SynNotch) and Gal4 fused to VPR (“VPR,” a strong transcriptional activator, whose strength is penalized by high background activation in SynNotch constructs). […]

[9] = system: HEK 293FT cells; assay: Tension Gauge Tether (TGT) assay of Notch/SynNotch receptor activation; assay type: cell-based, human; details: mCherry reporter, flow cytometry
Description: FIG. 5A-5E depict the use of ruptureable double-stranded DNA tethers. […] One strand of the TGT attaches to a rigid plate through biotin-avidin binding, while the other presents a ligand. The TGT ruptures at a defined force, determined by the orientation of the ligand and the biotin. If the TGT is weaker than the force required to activate the Notch receptor, it ruptures before the LNR domains can be displaced. If it is stronger, the LNR domains are displaced and activation occurs.
(FIG. 33A) TGTs are double stranded-DNA tethers that rupture at defined forces. One strand of the TGT attaches to a rigid plate, and the other presents a ligand for cells to bind. In this case, the ligand used is fluorescein, which interacts with an αFITC SynNotch. If the tension tolerance of the TGT is weaker than that of the NRR, the TGT will break before the NRR can open. If it is stronger, the NRR domain will unravel, and Notch activation will occur, as visualized by expression of an H2B-mCherry reporter gene.

## COc1ccc2c(O[C@@H]3C[C@H]4C(=O)N[C@]5(C(=O)O)C[C@H]5/C=C\CCCCC[C@H](NC(=O)OC5CCCC5)C(=O)N4C3)cc(-c3csc(NC(C)C)n3)nc2c1 [BILN-2061]
[1]
  expression of the H2B-Citrine reporter protein: capable of inducing robust transcriptional responses
[2]
  BILN-2061 concentration at which TF stabilization was shown (enhanced detection): 0.08 µM
[3]
  upregulation of gene targets (UAS H2B-Citrine reporter, CXCR4): induce upregulation of both gene targets in a dose-dependent manner
[4]; Dll1-NS3-mCherry sender cells
  Notch activation of receiver cells (H2B-Citrine) in coculture: Activated receiver cells were observed only in cocultures treated with drug
[4]; fixed non-permeabilized cells expressing Dll1-NS3-mCherry
  surface presentation of Dll1 extracellular region: Surface presentation of the Dll1 extracellular region was induced
[5]
  preservation of intact turn-off TF proteins (western blot): Intact proteins were preserved
[6]
  regulation of TRE BFP and UAS H2B-Citrine reporters: induced concurrent TRE BFP activation and UAS H2B-Citrine repression
[7]; HeLa cells, 3 μM BILN-2061
  nuclear localization of dCas9 domain: Nuclear localized dCas9 was observed only in drug treated cells
[7]
  stabilization of full-length dCas9-NS3 TF (immunoblot): preservation of full-length dCas9-NS3-NLSNPR copies

## C[C@H](NC(=O)Cc1cc(F)cc(F)c1)C(=O)N[C@H](C(=O)OC(C)(C)C)c1ccccc1 [DAPT]
[8]
  effect on leaky SynNotch receptor activation: suppress leaky receptor activation

## COc1ccc2c(O[C@@H]3C[C@H]4C(=O)N[C@]5(C(=O)O)C[C@H]5/C=C\CCCCC[C@H](NC(=O)OC5CCCC5)C(=O)N4C3)cc(-c3csc(NC(C)C)n3)nc2c1 [ciluprevir]
[7]
  stabilization of full-length dCas9-NS3 TF (immunoblot): dCNV is stabilized

## CC(C)(C)OC(=O)N[C@H]1CCCCC/C=C\[C@@H]2C[C@@]2(C(=O)NS(=O)(=O)C2CC2)NC(=O)[C@@H]2C[C@@H](OC(=O)N3Cc4cccc(F)c4C3)CN2C1=O [danoprevir]
[1]
  expression of the H2B-Citrine reporter protein: capable of inducing robust transcriptional responses

B1: WT NRR: "Notch's force-sensitive Negative Regulatory Region, which contains three LNR domains" (protein, listed as Homo sapiens)
chain: ILDYSFGGGAGRDIPPPLIEEACELPECQEDAGNKVCSLQCNNHACGWDGGDCSLNFNDPWKNCTQSLQCWKYFSDGHCDSQCNSAGCLFDGFDCQRAEGQCNPLYDQYCKDHFSDGHCDQGCNSAECEWDGLDCAEHVPERLAAGTLVVVVLMPPEQLRNSSFHFLRELSRVLHTNVVFKRDAHGQQMIFPYYGREEELRKHPIKRAAEGWAAPDALLGQVKASLLPGGSEGGRRRRELDPMDVRGSIVYLEIDNRQCVQASSQCFQSATDVAAFLGALASLGSLNIPYKIEAVQSETVEPPPPAQ
[9]
  receptor activation on TGTs of defined strength: activated by both 12 pN and 56 pN TGTs; also recorded: responding identically to all mechanical stimuli
